Patent US20130079373A1, “Substituted Methanesulfonamide Derivatives as Vanilloid Receptor Ligands” (priority 2011, published 2013)

Target: T1, vanilloid receptor 1 (VR1/TRPV1 receptor) (Homo sapiens, UniProt Q8NER1)
T1 construct: expressed in transfected cells; host or cells: CHO K1
Assay: Functional testing on the vanilloid receptor 1 (FLIPR Ca2+ influx assay, capsaicin stimulation)
Format: cell-based
Conditions: Cap = capsaicin; human being; Ki from IC50 by the Cheng-Prusoff equation; read-out: (f) Ki (human being) [nM] Cap
Procedure: Furthermore, preference may be given to compounds according to the invention that cause a 50 percent displacement of capsaicin, which is present at a concentration of 100 nM, in a FLIPR assay with CHO K1 cells which were transfected with the human VR1 gene at a concentration of less than 2,000 nM, preferably less than 1,000 nM, particularly preferably less than 300 nM, most particularly preferably less than 100 nM, even more preferably less than 75 nM, additionally preferably less than 50 nM, most preferably less than 10 nM.
In the process, the Ca^2+ influx is quantified in the FLIPR assay with the aid of a Ca^2+-sensitive dye (type Fluo-4, Molecular Probes Europe BV, Leiden, the Netherlands) in a fluorescent imaging plate reader (FLIPR, Molecular Devices, Sunnyvale, USA), as described hereinafter.
I. Functional Testing Carried Out on the Vanilloid Receptor 1 (VR1/TRPV1 Receptor) […]
The number of cells in the suspension is set to 3×10^5 per mL and 150 μL of this suspension are in each case introduced into a recess in the cell culture plates coated as described hereinbefore. In the incubator the plates are left for two to three days at 37° C., 5% by volume of CO2 and 95% relative humidity. Subsequently, the cells are loaded with 2 μM of Fluo-4 and 0.01% by volume of Pluronic F127 (Molecular Probes Europe BV, Leiden, the Netherlands) in HBSS buffer (Hank's buffered saline solution, Gibco Invitrogen GmbH, Karlsruhe, Germany) for 30 min at 37° C., washed 3 times with HBSS buffer and after further incubation for 15 minutes at room temperature used for Ca^2+ measurement in a FLIPR assay. The Ca^2+ dependent fluorescence is in this case measured before and after the addition of substances (λex=488 nm, λem=540 nm). Quantification is carried out by measuring the highest fluorescence intensity (FC, fluorescence counts) over time.
The FLIPR protocol consists of 2 substance additions. First the compounds to be tested (10 μM) are pipetted onto the cells and the Ca^2+ influx is compared with the control (capsaicin 10 μM). This provides the result in % activation based on the Ca^2+ signal after the addition of 10 μM of capsaicin (CP). After 5 minutes' incubation, 100 nM of capsaicin are applied and the Ca^2+ influx is also determined.
Desensitising agonists and antagonists lead to suppression of the Ca^2+ influx. The % inhibition is calculated compared to the maximum achievable inhibition with 10 μM of capsazepine.
Triple analyses (n=3) are carried out and repeated in at least 3 independent experiments (N=4).
Starting from the percentage displacement caused by different concentrations of the compounds to be tested of general formula I, IC50 inhibitory concentrations which cause a 50-percent displacement of capsaicin were calculated. Ki values for the test substances were obtained by conversion by means of the Cheng-Prusoff equation (Cheng, Prusoff; Biochem. Pharmacol. 22, 3099-3108, 1973).
The affinity of the compounds according to the invention for the vanilloid receptor 1 (VR1/TRPV1 receptor) was determined as described hereinbefore (pharmacological method I).

T1 sequence (Q8NER1 whole entry): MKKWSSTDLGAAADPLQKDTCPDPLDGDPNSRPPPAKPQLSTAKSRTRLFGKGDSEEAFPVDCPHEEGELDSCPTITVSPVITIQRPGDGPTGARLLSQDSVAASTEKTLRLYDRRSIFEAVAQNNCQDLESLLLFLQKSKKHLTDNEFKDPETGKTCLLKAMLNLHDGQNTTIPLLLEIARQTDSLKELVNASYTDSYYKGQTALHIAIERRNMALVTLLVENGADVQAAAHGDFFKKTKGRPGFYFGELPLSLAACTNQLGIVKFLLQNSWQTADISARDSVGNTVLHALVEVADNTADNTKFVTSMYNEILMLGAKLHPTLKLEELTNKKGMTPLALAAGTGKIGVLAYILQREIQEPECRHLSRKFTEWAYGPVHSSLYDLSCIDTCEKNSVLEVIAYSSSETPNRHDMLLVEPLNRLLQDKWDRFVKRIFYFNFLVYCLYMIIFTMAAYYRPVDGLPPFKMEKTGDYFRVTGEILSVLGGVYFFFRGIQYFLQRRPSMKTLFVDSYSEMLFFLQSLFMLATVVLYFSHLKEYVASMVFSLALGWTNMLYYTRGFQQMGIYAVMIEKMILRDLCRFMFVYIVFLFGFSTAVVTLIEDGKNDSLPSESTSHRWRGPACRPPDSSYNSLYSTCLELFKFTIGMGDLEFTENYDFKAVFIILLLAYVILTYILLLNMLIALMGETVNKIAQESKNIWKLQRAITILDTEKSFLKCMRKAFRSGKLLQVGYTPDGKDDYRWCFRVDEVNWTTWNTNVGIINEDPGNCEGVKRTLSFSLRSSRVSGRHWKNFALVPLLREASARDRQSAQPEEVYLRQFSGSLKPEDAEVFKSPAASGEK

With CCS(=O)(=O)NCc1ccc(C(C)C(=O)NCc2ccc(C(F)(F)F)nc2OC(C)C)cc1F (stereo not shown) [Example 30, 2-(4-(ethylsulfonamidomethyl)-3-fluorophenyl)-N-((2-isopropoxy-6-(trifluoromethyl)pyridin-3-yl)methyl)propanamide] as the compound, how does the Ki read?
The Ki was 70 nM.
